ChEMBL document CHEMBL1201862, “PubChem BioAssay data set” (2004)
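How tested: cells in 96-well plates exposed to compound for 48 hours at five concentrations. Here, GI50 denotes the concentration required for 50% inhibition of growth.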 Activity calls are given as the source filed them. Cut-off read from the data, not from the text of the source: active = GI50 up to about 1.1 µM and inactive = higher.

Columns and labels:
Assay in all cases: DTP human tumour cell line panel, 48 h
M14 = test system: M14
SN12C = test system: SN12C
NCI-H226 = test system: NCI-H226
HCC 2998 = test system: HCC 2998
SK-MEL-2 = test system: SK-MEL-2
SF-268 = test system: SF-268
EKVX = test system: EKVX
HL-60 = test system: HL-60
Malme-3M = test system: Malme-3M
K562 = test system: K562
HT-29 = test system: HT-29
RXF 393 = test system: RXF 393
HCT-116 = test system: HCT-116
OVCAR-3 = test system: OVCAR-3
SF-295 = test system: SF-295
MDA-N = test system: MDA-N
786-0 = test system: 786-0
U-251 = test system: U-251
PC-3 = test system: PC-3
COLO 205 = test system: COLO 205
MCF7 = test system: MCF7
ACHN = test system: ACHN
UACC-62 = test system: UACC-62
UACC-257 = test system: UACC-257
NCI/ADR-RES = test system: NCI/ADR-RES
RPMI-8226 = test system: RPMI-8226
SNB-19 = test system: SNB-19
MDA-MB-435 = test system: MDA-MB-435
A498 = test system: A498
NCI-H460 = test system: NCI-H460
SK-MEL-5 = test system: SK-MEL-5
HOP-92 = test system: HOP-92
DU-145 = test system: DU-145
SR = test system: SR
MDA-MB-231 = test system: MDA-MB-231
NCI-H522 = test system: NCI-H522
OVCAR-4 = test system: OVCAR-4
CCRF-CEM = test system: CCRF-CEM
SW-620 = test system: SW-620
SF-539 = test system: SF-539
SNB-75 = test system: SNB-75
NCI-H23 = test system: NCI-H23
KM12 = test system: KM12
HCT-15 = test system: HCT-15
BT-549 = test system: BT-549
SK-OV-3 = test system: SK-OV-3
UO-31 = test system: UO-31
CAKI-1 = test system: CAKI-1
OVCAR-5 = test system: OVCAR-5
HOP-62 = test system: HOP-62
IGROV-1 = test system: IGROV-1
SK-MEL-28 = test system: SK-MEL-28
LOX IMVI = test system: LOX IMVI
A549 = test system: A549
MOLT-4 = test system: MOLT-4
T47D = test system: T47D
TK-10 = test system: TK-10
Hs-578T = test system: Hs-578T
OVCAR-8 = test system: OVCAR-8

Measured: GI50

Cc1cc(SCC(=O)c2ccc(Br)cc2)cc(C)[o+]1
32.1 µM: HCT-15
inactive: M14 26.5 µM | SN12C 39 µM | NCI-H226 31.3 µM | HCC 2998 25.2 µM | SK-MEL-2 30.8 µM | SF-268 47.6 µM | EKVX 12.4 µM | HL-60 13.5 µM | Malme-3M 30.9 µM | K562 24.9 µM | HT-29 25.1 µM | RXF 393 28.6 µM | HCT-116 23.8 µM | OVCAR-3 21.4 µM | SF-295 26.6 µM | MDA-N 30.6 µM | 786-0 33.5 µM | U-251 30.1 µM | PC-3 29.4 µM | COLO 205 31.9 µM | MCF7 19.3 µM | ACHN 31.2 µM | UACC-62 31.4 µM | UACC-257 25.1 µM | NCI/ADR-RES 29.8 µM | RPMI-8226 21.7 µM | SNB-19 36.7 µM | MDA-MB-435 21.3 µM | A498 27.3 µM | NCI-H460 25.5 µM | SK-MEL-5 18 µM | HOP-92 22.7 µM | DU-145 29.5 µM | SR 22.8 µM | MDA-MB-231 36.6 µM | NCI-H522 21.6 µM | OVCAR-4 24.9 µM | CCRF-CEM 16 µM | SW-620 34 µM | SF-539 23 µM | SNB-75 20.3 µM | NCI-H23 31.6 µM | KM12 24.4 µM | BT-549 39.7 µM | SK-OV-3 60 µM | UO-31 26.6 µM | CAKI-1 35.9 µM | OVCAR-5 20.6 µM | HOP-62 36.8 µM | IGROV-1 37.4 µM | SK-MEL-28 13.8 µM | LOX IMVI 32.1 µM | A549 31.7 µM | MOLT-4 17.4 µM | T47D 19.8 µM | TK-10 35.1 µM | Hs-578T 47.6 µM | OVCAR-8 32.4 µM

C=CCn1c(=O)ccn(COCCO)c1=O
inactive: M14 > 100 µM | SN12C > 100 µM | NCI-H226 > 100 µM | HCC 2998 > 100 µM | SK-MEL-2 > 100 µM | SF-268 > 100 µM | EKVX > 100 µM | HL-60 > 100 µM | Malme-3M > 100 µM | K562 > 100 µM | HT-29 > 100 µM | RXF 393 > 100 µM | OVCAR-3 > 100 µM | MDA-N > 100 µM | U-251 > 100 µM | PC-3 > 100 µM | COLO 205 > 100 µM | MCF7 > 100 µM | ACHN > 100 µM | UACC-257 > 100 µM | NCI/ADR-RES > 100 µM | RPMI-8226 > 100 µM | SNB-19 25.8 µM | MDA-MB-435 > 100 µM | A498 > 100 µM | NCI-H460 > 100 µM | SK-MEL-5 > 100 µM | HOP-92 > 100 µM | DU-145 > 100 µM | SR > 100 µM | MDA-MB-231 > 100 µM | NCI-H522 > 100 µM | OVCAR-4 > 100 µM | CCRF-CEM > 100 µM | SW-620 > 100 µM | SF-539 > 100 µM | SNB-75 > 100 µM | NCI-H23 > 100 µM | KM12 > 100 µM | BT-549 > 100 µM | UO-31 > 100 µM | CAKI-1 > 100 µM | OVCAR-5 > 100 µM | HOP-62 > 100 µM | IGROV-1 > 100 µM | SK-MEL-28 > 100 µM | LOX IMVI > 100 µM | A549 > 100 µM | MOLT-4 > 100 µM | T47D > 100 µM | TK-10 > 100 µM | Hs-578T > 100 µM | OVCAR-8 > 100 µM

Nc1nc(I)nc2c1ncn2C1OC(COS(N)(=O)=O)C(O)C1O (stereo not given)
0.0176 µM: HCT-15
active: M14 < 0.0104 µM | SN12C < 0.01 µM | NCI-H226 < 0.01 µM | HCC 2998 < 0.0127 µM | SK-MEL-2 < 0.01 µM | SF-268 < 0.01 µM | EKVX < 0.0121 µM | Malme-3M < 0.01 µM | K562 < 0.01 µM | HT-29 < 0.0106 µM | RXF 393 0.0148 µM | HCT-116 < 0.01 µM | OVCAR-3 < 0.01 µM | SF-295 0.0393 µM | MDA-N < 0.01 µM | 786-0 < 0.0106 µM | U-251 < 0.01 µM | PC-3 < 0.01 µM | COLO 205 < 0.01 µM | MCF7 < 0.01 µM | ACHN < 0.0117 µM | UACC-62 0.0226 µM | UACC-257 0.0163 µM | NCI/ADR-RES < 0.01 µM | RPMI-8226 0.0179 µM | SNB-19 < 0.01 µM | MDA-MB-435 < 0.01 µM | A498 < 0.01 µM | NCI-H460 0.0126 µM | SK-MEL-5 < 0.01 µM | HOP-92 < 0.0142 µM | DU-145 < 0.01 µM | SR < 0.01 µM | MDA-MB-231 < 0.01 µM | NCI-H522 < 0.01 µM | OVCAR-4 < 0.01 µM | CCRF-CEM < 0.01 µM | SW-620 0.0235 µM | SF-539 < 0.01 µM | SNB-75 < 0.01 µM | NCI-H23 < 0.01 µM | KM12 < 0.01 µM | BT-549 < 0.0108 µM | SK-OV-3 < 0.0166 µM | UO-31 0.0187 µM | CAKI-1 0.0336 µM | OVCAR-5 < 0.01 µM | HOP-62 0.0218 µM | IGROV-1 0.0128 µM | SK-MEL-28 < 0.01 µM | LOX IMVI < 0.0116 µM | A549 0.0275 µM | MOLT-4 < 0.01 µM | T47D < 0.01 µM | TK-10 0.0102 µM | Hs-578T < 0.01 µM | OVCAR-8 < 0.01 µM
